Results from patent publication US10927098B2, “Hydroxyalkyl-substituted triazole derivatives and uses thereof” (Bayer Pharma Aktiengesellschaft, priority 2016, dated 2021).
pIC50: −log10 of the molar value.

What was measured:
human V2 receptor = target: T1, human V2 receptor (Homo sapiens, UniProt P30518); experiment: Cellular in vitro assay for determining vasopressin receptor activity, V2 receptor cell line (CRE-luciferase); type: cell-based; settings: CHO cell line transfected with the human V2 receptor; [Arg8]-vasopressin at EC50 concentration; read-out: IC50 hV2
T1 construct: expressed in transfected cells; host or cells: CHO K1 (ATCC) expressing firefly luciferase under a CRE-responsive promoter
T1 sequence (P30518 whole entry): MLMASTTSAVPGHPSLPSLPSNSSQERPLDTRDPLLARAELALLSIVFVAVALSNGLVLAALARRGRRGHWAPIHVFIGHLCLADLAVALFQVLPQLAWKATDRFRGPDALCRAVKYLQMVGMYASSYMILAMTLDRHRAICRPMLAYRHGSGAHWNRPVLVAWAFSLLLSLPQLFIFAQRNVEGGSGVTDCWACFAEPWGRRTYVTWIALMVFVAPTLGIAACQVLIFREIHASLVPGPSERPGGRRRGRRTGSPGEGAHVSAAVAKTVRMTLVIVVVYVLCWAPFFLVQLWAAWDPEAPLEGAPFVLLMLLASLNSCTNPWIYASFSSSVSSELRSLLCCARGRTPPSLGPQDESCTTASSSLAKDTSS
Description: (§1) B-1. Cellular In Vitro Assay for Determining Vasopressin Receptor Activity
(§2) The identification of agonists and antagonists of the V1a and V2 vasopressin receptors from humans, rats and dogs as well as the quantification of the activity of the compounds of the invention is carried out using recombinant cell lines. These cell lines originally derive from a hamster's ovary epithelial cell (Chinese Hamster Ovary, CHO K1, ATCC: American Type Culture Collection, Manassas, Va. 20108, USA). The test cell lines constitutively express the human, rat or dog V1a or V2 receptors. In case of the Gαq-coupled V1a receptors, cells are also stably transfected with a modified form of the calcium-sensitive photoproteins aequorin (human and rat V1a) or obelin (dog Via), which, after reconstitution with the cofactor coelenterazine, emit light when there are increases in free calcium concentrations [Rizzuto R, Simpson A W, Brini M, Pozzan T, Nature 358, 325-327 (1992); Illarionov B A, Bondar V S, Illarionova V A, Vysotski E S, Gene 153 (2), 273-274 (1995)]. The resulting vasopressin receptor cells react to stimulation of the recombinantly expressed V1a receptors by intracellular release of calcium ions, which can be quantified by the resulting photoprotein luminescence. The Gs-coupled V2 receptors are stably transfected into cell lines expressing the gene for firefly luciferase under control of a CRE-responsible promoter. Activation of V2 receptors induces the activation of the CRE-responsive promoter via cAMP increase, thereby inducing the expression of firefly luciferase. The light emitted by photoproteins of V1a cell lines as well as the light emitted by firefly luciferase of V2 cell lines corresponds to the activation or inhibition of the respective vasopressin receptor. The bioluminescence of the cell lines is detected using a suitable luminometer [Milligan G, Marshall F, Rees S, Trends in Pharmacological Sciences 17, 235-237 (1996)].
Vasopressin V2 Receptor Cell Lines:
On the day before the assay, the cells are plated out in culture medium (DMEM/F12, 2% FCS, 2 mM glutamine, 10 mM HEPES) in 384-well microtiter plates and kept in a cell incubator (96% humidity, 5% v/v CO2, 37° C.). On the day of the assay, test compounds in various concentrations and the agonist [Arg^8]-vasopressin at EC50 concentration are added together to the wells, and plates are incubated for 3 hours in a cell incubator. Upon addition of the cell lysis reagent Triton™ and the substrate luciferin, luminescence of firefly luciferase is measured in a luminometer.
(§3) Table 1A below lists individual IC50 values for the compounds of the invention (including racemic mixtures as well as separated enantiomers) that were obtained from cell lines transfected with the human V1a or V2 receptor: […]

human V1a receptor = target: T2, human V1a receptor (Homo sapiens, UniProt P37288); experiment: Cellular in vitro assay for determining vasopressin receptor activity, V1a receptor cell line (aequorin luminescence); type: cell-based; settings: for pIC50: CHO cell line transfected with the human V1a receptor, [Arg8]-vasopressin at EC50 concentration, read-out: IC50 hV1a; for ratio IC50 hV2/hV1a: ratio of the IC50 values at human V2 and human V1a receptor
T2 construct: expressed in transfected cells; host or cells: CHO K1 (ATCC), also stably transfected with a modified aequorin
T2 sequence (P37288 whole entry): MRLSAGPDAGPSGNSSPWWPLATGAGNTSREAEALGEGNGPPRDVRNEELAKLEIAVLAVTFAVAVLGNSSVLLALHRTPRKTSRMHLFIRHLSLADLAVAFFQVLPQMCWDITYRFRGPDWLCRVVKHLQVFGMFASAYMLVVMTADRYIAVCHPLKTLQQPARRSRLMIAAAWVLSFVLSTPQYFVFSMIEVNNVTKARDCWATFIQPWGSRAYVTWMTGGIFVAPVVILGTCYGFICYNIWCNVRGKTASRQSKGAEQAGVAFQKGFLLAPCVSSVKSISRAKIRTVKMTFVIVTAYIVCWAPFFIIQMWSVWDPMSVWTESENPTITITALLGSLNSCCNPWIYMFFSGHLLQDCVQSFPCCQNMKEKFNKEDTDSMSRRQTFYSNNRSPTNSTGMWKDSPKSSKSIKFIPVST
Description: as §1, §2
Vasopressin V1a Receptor Cell Lines:
On the day before the assay, the cells are plated out in culture medium (DMEM/F12, 2% FCS, 2 mM glutamine, 10 mM HEPES, 5 μg/ml coelenterazine) in 384-well microtiter plates and kept in a cell incubator (96% humidity, 5% v/v CO2, 37° C.). On the day of the assay, test compounds in various concentrations are placed for 10 minutes in the wells of the microtiter plate before the agonist [Arg^8]-vasopressin at EC50 concentration is added. The resulting light signal is measured immediately in a luminometer.
as §3

Row | Structure (SMILES) | pIC50 (human V2 receptor) | pIC50 (human V1a receptor) | ratio IC50 hV2/hV1a (human V1a receptor)
1 | CC(C)C(O)c1nc(Cn2nc(-c3ccc(Cl)cc3)n(C[C@H](O)C(F)(F)F)c2=O)nn1-c1ccccc1Cl (single isomer, unassigned) [Example 8] | 8.66 | 9.22 | 3.7
2 | CC(C)C(O)c1nc(Cn2nc(-c3ccc(Cl)cc3)n(C[C@H](O)C(F)(F)F)c2=O)nn1-c1ccccc1Cl (single isomer, unassigned) [Example 9] | 7.60 | 9.05 | 28.2
3 | CC(O)(C(=O)O)c1nc(Cn2nc(-c3ccc(Cl)cc3)n(C[C@H](O)C(F)(F)F)c2=O)nn1-c1ccccc1Cl (mixture of isomers) [Example 14, 2-[1-(2-Chlorophenyl)-3-({3-(4-chlorophenyl)-5-oxo-4-[(2S)-3,3,3-trifluoro-2-hydroxypropyl]-4,5-dihydro-1H-1,2,4-triazol-1-yl}methyl)-1H-1,2,4-triazol-5-yl]-2-hydroxypropanoic acid] | 7.12 | 7.78 | 4.6
4 | CC(C)(O)c1nc(Cn2nc(-c3ccc(Cl)cc3)n(C[C@H](O)C(F)(F)F)c2=O)nn1-c1ccccc1Cl [Example 13, 5-(4-Chlorophenyl)-2-{[1-(2-chlorophenyl)-5-(2-hydroxypropan-2-yl)-1H-1,2,4-triazol-3-yl]methyl}-4-[(2S)-3,3,3-trifluoro-2-hydroxypropyl]-2,4-dihydro-3H-1,2,4-triazol-3-one] | 8.16 | 8.68 | 3.3
5 | CC(O)(C(=O)O)c1nc(Cn2nc(-c3ccc(Cl)cc3)n(C[C@H](O)C(F)(F)F)c2=O)nn1-c1ccccc1Cl (single isomer, unassigned) [Example 16] | 6.60 | 8.26 | 45.8
6 | CC(O)(C(=O)O)c1nc(Cn2nc(-c3ccc(Cl)cc3)n(C[C@H](O)C(F)(F)F)c2=O)nn1-c1ccccc1Cl (single isomer, unassigned) [Example 15] | 7.58 | 8.46 | 7.6
7 | COc1ccccc1-n1nc(Cn2nc(-c3ccc(Cl)cc3)n(C[C@H](O)C(F)(F)F)c2=O)nc1C(C)(C)O [Example 3, 5-(4-Chlorophenyl)-2-{[5-(2-hydroxypropan-2-yl)-1-(2-methoxyphenyl)-1H-1,2,4-triazol-3-yl]methyl}-4-[(2S)-3,3,3-trifluoro-2-hydroxypropyl]-2,4-dihydro-3H-1,2,4-triazol-3-one] | 8.72 | 9.10 | 2.4

Other lines, results leading:

Row | pIC50 (human V2 receptor) | pIC50 (human V1a receptor) | ratio IC50 hV2/hV1a (human V1a receptor) | Structure (SMILES)
8 | 8.29 | 9.10 | 6.4 | CC(C)C(O)c1nc(Cn2nc(-c3ccc(Cl)cc3)n(C[C@H](O)C(F)(F)F)c2=O)nn1-c1ccccc1Cl (mixture of isomers) [Example 7, 5-(4-Chlorophenyl)-2-{[1-(2-chlorophenyl)-5-(1-hydroxy-2-methylpropyl)-1H-1,2,4-triazol-3-yl]methyl}-4-[(2S)-3,3,3-trifluoro-2-hydroxypropyl]-2,4-dihydro-3H-1,2,4-triazol-3-one]
9 | 8.38 | 8.80 | 2.6 | CCC(O)c1nc(Cn2nc(-c3ccc(Cl)cc3)n(C[C@H](O)C(F)(F)F)c2=O)nn1-c1ccccc1Cl (single isomer, unassigned) [Example 5]
10 | 8.68 | 7.87 | 0.2 | O=c1n(Cc2nc(C(O)C(F)(F)F)n(-c3cccc(Cl)c3)n2)nc(-c2ccc(Cl)cc2)n1C[C@H](O)C(F)(F)F (mixture of isomers) [Example 10, 5-(4-Chlorophenyl)-2-{[1-(3-chlorophenyl)-5-(2,2,2-trifluoro-1-hydroxyethyl)-1H-1,2,4-triazol-3-yl]methyl}-4-[(2S)-3,3,3-trifluoro-2-hydroxypropyl]-2,4-dihydro-3H-1,2,4-triazol-3-one]
11 | 8.08 | 9.15 | 12.0 | CCC(O)c1nc(Cn2nc(-c3ccc(Cl)cc3)n(C[C@H](O)C(F)(F)F)c2=O)nn1-c1ccccc1Cl (single isomer, unassigned) [Example 6]
12 | 7.60 | 8.18 | 3.8 | CC(C)(O)c1nc(Cn2nc(-c3ccc(Cl)cc3)n(C[C@H](O)C(F)(F)F)c2=O)nn1-c1cccc(F)c1 [Example 1, 5-(4-Chlorophenyl)-2-{[1-(3-fluorophenyl)-5-(2-hydroxypropan-2-yl)-1H-1,2,4-triazol-3-yl]methyl}-4-[(2S)-3,3,3-trifluoro-2-hydroxypropyl]-2,4-dihydro-3H-1,2,4-triazol-3-one]
13 | 8.48 | 7.66 | 0.2 | CC(C)(O)c1nc(Cn2nc(-c3ccc(Cl)cc3)n(C[C@H](O)C(F)(F)F)c2=O)nn1-c1cccc(Cl)c1 [Example 2, 5-(4-Chlorophenyl)-2-{[1-(3-chlorophenyl)-5-(2-hydroxypropan-2-yl)-1H-1,2,4-triazol-3-yl]methyl}-4-[(2S)-3,3,3-trifluoro-2-hydroxypropyl]-2,4-dihydro-3H-1,2,4-triazol-3-one]
14 | 8.33 | 9.15 | 6.7 | CCC(O)c1nc(Cn2nc(-c3ccc(Cl)cc3)n(C[C@H](O)C(F)(F)F)c2=O)nn1-c1ccccc1Cl (mixture of isomers) [Example 4, 5-(4-Chlorophenyl)-2-{[1-(2-chlorophenyl)-5-(1-hydroxypropyl)-1H-1,2,4-triazol-3-yl]methyl}-4-[(2S)-3,3,3-trifluoro-2-hydroxypropyl]-2,4-dihydro-3H-1,2,4-triazol-3-one]
15 | 8.74 | 7.83 | 0.1 | O=c1n(Cc2nc(C(O)C(F)(F)F)n(-c3cccc(Cl)c3)n2)nc(-c2ccc(Cl)cc2)n1C[C@H](O)C(F)(F)F (single isomer, unassigned) [Example 11]
16 | 7.46 | 8.66 | 15.8 | O=c1n(Cc2nc(C(O)C(F)(F)F)n(-c3cccc(Cl)c3)n2)nc(-c2ccc(Cl)cc2)n1C[C@H](O)C(F)(F)F (single isomer, unassigned) [Example 12]
